Legend:
Type in all cases: physicochemical
[1] = Lipophilicity, log D of the compound in octanol/water system at pH 7 by shake-flask assay based HPLC analysis
[2] = Lipophilicity, log P of the compound in toluene/water system by potentiometric titration method; conditions: buffer
[3] = Lipophilicity, log D of the compound in toluene/water system at pH 7 by potentiometric titration method; conditions: buffer
[4] = Lipophilicity, log D of the compound in octanol/water system at pH 7 by potentiometric titration method
[5] = Lipophilicity, log D of the compound in toluene/water system at pH 7 by shake-flask assay based HPLC analysis; conditions: buffer
[6] = Lipophilicity, log D of the compound assessed as retention index in nonpolar system in presence of 80% acetonitrile cosolvent by PLRP-S based RP-HPLC analysis
[7] = Basic ionization constant, pKa of the compound in 100% acetonitrile by UV-vis spectrophotometric titration method
[8] = Ionization constant, pKa of the compound in water in presence of 40 to 42.6% acetonitrile cosolvent by potentiometric titration method; conditions: water with 40 to 42.6% acetonitrile cosolvent
[9] = Acidic ionization constant, pKa of the compound in water by potentiometric titration method
[10] = Ionization constant, pKa of the compound in water in presence of 30 to 35% acetonitrile cosolvent by potentiometric titration method; conditions: water with 30 to 35% acetonitrile cosolvent
[11] = Ionization constant, pKa of the compound in water in presence of 20 to 27.4% acetonitrile cosolvent by potentiometric titration method; conditions: water with 20 to 27.4% acetonitrile cosolvent
[12] = Ionization constant, pKa of the compound in water by potentiometric titration method
[13] = Lipophilicity, log P of the compound in octanol/water system by potentiometric titration method
[14] = Ionization constant, pKa of the compound in water in presence of 80% acetonitrile cosolvent by PLRP-S based RP-HPLC analysis; conditions: water with 80% acetonitrile cosolvent
[15] = Basic ionization constant, pKa of the compound in water by potentiometric titration method
[16] = 100% acetonitrile, read-out: pKa

Row | SMILES | logD [1] | logP [2] | logD [3] | logD [4] | logD [5] | Retention_index [6] | pKa [8] | pKa [10] | pKa [11] | pKa [7] | pKa [12] | logP [13] | pKa [14] | logP ([13]; read-out: logP) | pKa [15] | pKa [7, 16] | pKa [9]
1 | CCn1cc(C(=O)O)c(=O)c2ccc(C)nc21 [NALIDIXIC ACID] | 0.35 |  |  |  | -0.12 | -0.15 | 7.56 | 7.1 | 6.63 |  |  |  |  |  |  | 6.17 | 6.25
2 | Cc1cccc(C)c1NC(=O)C1CCCCN1C (centres undefined) [MEPIVACAINE] | 0.92 | 1.4 | 0.8 | 1.1 | 0.89 | 0.22 | 7.74 | 7.78 | 7.88 | 16.62 | 7.83 | 3.3 | 5.9 |  |  |  | 
3 | Nc1cccc(O)c1 [3-AMINOPHENOL] | -0.11 |  |  | 0.1 | -1.77 | -0.65 | 4.01 | 4.07 | 4.13 |  |  |  |  | 0.1 | 4.36 | 10.4 | 9.82
4 | NS(=O)(=O)c1cc2c(cc1Cl)NCNS2(=O)=O [HYDROCHLOROTHIAZIDE] |  |  |  |  |  |  |  |  |  |  | 8.68 |  |  |  |  |  | 

The next lines start with results.

Row | logD [1] | logP [2] | logD [3] | logD [4] | logD [5] | Retention_index [6] | pKa [8] | pKa [10] | pKa [11] | pKa [7] | pKa [12] | logP [13] | pKa [14] | logP ([13]; read-out: logP) | pKa [15] | SMILES | pKa [7, 16] | pKa [9]
5 | 1.07 | 3.1 | 0.2 | 1.3 | -0.43 |  |  |  |  |  |  |  |  |  |  | CC(C)Cc1ccc(C(C)C(=O)O)cc1 (centres undefined) [IBUPROFEN] |  | 
6 | -1.32 | 0.3 | < 0 | < 0 | < -2.5 |  |  |  |  |  |  |  |  | 3.2 |  | CCCCC(=O)N(Cc1ccc(-c2ccccc2-c2nnn[nH]2)cc1)[C@H](C(=O)O)C(C)C |  | 
